# Organism: Rattus norvegicus
# Experiment: DrugMatrix - Regimen: Daily Repeat
# Format: toxicity, organism-based, Sprague-Dawley
# Design: regimen Daily Repeat, gender Male, age 6-8 weeks
# Conditions: in vivo, po, route oral GAVAGE, vehicle .5 % CMC; for BASOPHIL / EOSINOPHIL / ERYTHROCYTE COUNT / HEMATOCRIT / HEMOGLOBIN / LEUKOCYTE COUNT / LYMPHOCYTE / MEAN CORPUSCULAR HEMOGLOBIN / MEAN CORPUSCULAR HEMOGLOBIN CONCENTRATION / MEAN CORPUSCULAR VOLUME / MONOCYTE / NEUTROPHIL / PLATELET COUNT: tissue Blood; for ALANINE AMINOTRANSFERASE / ALBUMIN / ALKALINE PHOSPHATASE / ASPARTATE AMINOTRANSFERASE / BLOOD UREA NITROGEN / CARBON DIOXIDE / CHLORIDE / CHOLESTEROL / CREATINE PHOSPHOKINASE / CREATININE / GLUCOSE / LACTATE DEHYDROGENASE / LIPASE / PHOSPHORUS / POTASSIUM / SODIUM / TOTAL BILIRUBIN / TOTAL PROTEIN / URIC ACID: tissue Plasma
# [1] = 0 mg/kg, 96 h, dose level Control, time 4 day
# [2] = 0 mg/kg, […], dose level Control, time 6 day
# [3] = 0 mg/kg, […], dose level Control, time 14 day
# [4] = 750 mg/kg, 96 h, dose level High, time 4 day
# [5] = 750 mg/kg, […], dose level High, time 6 day
# [6] = 750 mg/kg, […], dose level High, time 14 day
smiles,measurement,setting,value
Cc1ccc([N+](=O)[O-])cc1 [4-NITROTOLUENE],BASOPHIL,[1],0.5%
same,EOSINOPHIL,[1],1.85%
same,ERYTHROCYTE COUNT,[1],6.99 x10E6/uL
same,HEMATOCRIT,[1],43.82%
same,HEMOGLOBIN,[1],13.87 G/DL
same,LEUKOCYTE COUNT,[1],12.01 x10E3/uL
same,LYMPHOCYTE,[1],82.07%
same,MEAN CORPUSCULAR HEMOGLOBIN,[1],19.8 pg
same,MEAN CORPUSCULAR HEMOGLOBIN CONCENTRATION,[1],31.63 G/DL
same,MEAN CORPUSCULAR VOLUME,[1],62.7 fL
same,MONOCYTE,[1],2.6%
same,NEUTROPHIL,[1],12.38%
same,PLATELET COUNT,[1],1155 x10E3/uL
same,ALANINE AMINOTRANSFERASE,[1],31.67 u/L
same,ALBUMIN,[1],4.12 G/DL
same,ALKALINE PHOSPHATASE,[1],396 u/L
same,ASPARTATE AMINOTRANSFERASE,[1],75.67 u/L
same,BLOOD UREA NITROGEN,[1],17.5 mg/dL
same,CARBON DIOXIDE,[1],28.83 mmol/L
same,CHLORIDE,[1],103.83 MEQ/L
same,CHOLESTEROL,[1],84.83 mg/dL
same,CREATINE PHOSPHOKINASE,[1],597.17 u/L
same,CREATININE,[1],0.3 mg/dL
same,GLUCOSE,[1],161.5 mg/dL
same,LACTATE DEHYDROGENASE,[1],138.67 u/L
same,LIPASE,[1],11.5 u/L
same,PHOSPHORUS,[1],11.58 mg/dL
same,POTASSIUM,[1],6.87 MEQ/L
same,SODIUM,[1],146.83 MEQ/L
same,TOTAL BILIRUBIN,[1],0.38 mg/dL
same,TOTAL PROTEIN,[1],6.33 G/DL
same,URIC ACID,[1],1.37 mg/dL
same,BASOPHIL,[2],0.37%
same,EOSINOPHIL,[2],0.38%
same,ERYTHROCYTE COUNT,[2],6.89 x10E6/uL
same,HEMATOCRIT,[2],47.38%
same,HEMOGLOBIN,[2],14.8 G/DL
same,LEUKOCYTE COUNT,[2],13.59 x10E3/uL
same,LYMPHOCYTE,[2],80.27%
same,MEAN CORPUSCULAR HEMOGLOBIN,[2],21.52 pg
same,MEAN CORPUSCULAR HEMOGLOBIN CONCENTRATION,[2],31.22 G/DL
same,MEAN CORPUSCULAR VOLUME,[2],68.83 fL
same,MONOCYTE,[2],2.78%
same,NEUTROPHIL,[2],15.65%
same,PLATELET COUNT,[2],1330.17 x10E3/uL
same,BASOPHIL,[3],0.38%
same,EOSINOPHIL,[3],0.6%
same,ERYTHROCYTE COUNT,[3],7.78 x10E6/uL
same,HEMATOCRIT,[3],48.3%
same,HEMOGLOBIN,[3],15.42 G/DL
same,LEUKOCYTE COUNT,[3],13.55 x10E3/uL
same,LYMPHOCYTE,[3],81.18%
same,MEAN CORPUSCULAR HEMOGLOBIN,[3],19.8 pg
same,MEAN CORPUSCULAR HEMOGLOBIN CONCENTRATION,[3],31.92 G/DL
same,MEAN CORPUSCULAR VOLUME,[3],62.08 fL
same,MONOCYTE,[3],1.72%
same,NEUTROPHIL,[3],15.17%
same,PLATELET COUNT,[3],1083.83 x10E3/uL
same,ALANINE AMINOTRANSFERASE,[2],36 u/L
same,ALBUMIN,[2],4.03 G/DL
same,ALKALINE PHOSPHATASE,[2],354.17 u/L
same,ASPARTATE AMINOTRANSFERASE,[2],76.5 u/L
same,BLOOD UREA NITROGEN,[2],19.33 mg/dL
same,CARBON DIOXIDE,[2],27.83 mmol/L
same,CHLORIDE,[2],105.5 MEQ/L
same,CHOLESTEROL,[2],68.83 mg/dL
same,CREATINE PHOSPHOKINASE,[2],383.83 u/L
same,CREATININE,[2],0.35 mg/dL
same,GLUCOSE,[2],165.83 mg/dL
same,LACTATE DEHYDROGENASE,[2],155.17 u/L
same,LIPASE,[2],9.83 u/L
same,PHOSPHORUS,[2],12.4 mg/dL
same,POTASSIUM,[2],6.9 MEQ/L
same,SODIUM,[2],147.33 MEQ/L
same,TOTAL BILIRUBIN,[2],0.52 mg/dL
same,TOTAL PROTEIN,[2],6.42 G/DL
same,URIC ACID,[2],1.6 mg/dL
same,ALANINE AMINOTRANSFERASE,[3],36.83 u/L
same,ALBUMIN,[3],4.13 G/DL
same,ALKALINE PHOSPHATASE,[3],328.17 u/L
same,ASPARTATE AMINOTRANSFERASE,[3],74.83 u/L
same,BLOOD UREA NITROGEN,[3],18.67 mg/dL
same,CARBON DIOXIDE,[3],29.33 mmol/L
same,CHLORIDE,[3],105.17 MEQ/L
same,CHOLESTEROL,[3],72 mg/dL
same,CREATINE PHOSPHOKINASE,[3],217.67 u/L
same,CREATININE,[3],0.45 mg/dL
same,GLUCOSE,[3],151.17 mg/dL
same,LACTATE DEHYDROGENASE,[3],133.17 u/L
same,LIPASE,[3],14.5 u/L
same,PHOSPHORUS,[3],11.55 mg/dL
same,POTASSIUM,[3],6.77 MEQ/L
same,SODIUM,[3],149.33 MEQ/L
same,TOTAL BILIRUBIN,[3],0.37 mg/dL
same,TOTAL PROTEIN,[3],6.62 G/DL
same,URIC ACID,[3],1.57 mg/dL
same,BASOPHIL,[4],0.3%
same,EOSINOPHIL,[4],0.63%
same,ERYTHROCYTE COUNT,[4],6.55 x10E6/uL
same,HEMATOCRIT,[4],41.57%
same,HEMOGLOBIN,[4],12.83 G/DL
same,LEUKOCYTE COUNT,[4],12.7 x10E3/uL
same,LYMPHOCYTE,[4],82.73%
same,MEAN CORPUSCULAR HEMOGLOBIN,[4],19.6 pg
same,MEAN CORPUSCULAR HEMOGLOBIN CONCENTRATION,[4],30.9 G/DL
same,MEAN CORPUSCULAR VOLUME,[4],63.5 fL
same,MONOCYTE,[4],1.93%
same,NEUTROPHIL,[4],13.9%
same,PLATELET COUNT,[4],1261.33 x10E3/uL
same,ALANINE AMINOTRANSFERASE,[4],28.33 u/L
same,ALBUMIN,[4],3.93 G/DL
same,ALKALINE PHOSPHATASE,[4],300 u/L
same,ASPARTATE AMINOTRANSFERASE,[4],82.67 u/L
same,BLOOD UREA NITROGEN,[4],18.67 mg/dL
same,CARBON DIOXIDE,[4],25.33 mmol/L
same,CHLORIDE,[4],106 MEQ/L
same,CHOLESTEROL,[4],90 mg/dL
same,CREATINE PHOSPHOKINASE,[4],852 u/L
same,CREATININE,[4],0.4 mg/dL
same,GLUCOSE,[4],175.33 mg/dL
same,LACTATE DEHYDROGENASE,[4],320.67 u/L
same,LIPASE,[4],11 u/L
same,PHOSPHORUS,[4],12.03 mg/dL
same,POTASSIUM,[4],6.37 MEQ/L
same,SODIUM,[4],147 MEQ/L
same,TOTAL BILIRUBIN,[4],0.4 mg/dL
same,TOTAL PROTEIN,[4],6.07 G/DL
same,URIC ACID,[4],1.5 mg/dL
same,BASOPHIL,[5],0.2%
same,EOSINOPHIL,[5],0.4%
same,ERYTHROCYTE COUNT,[5],6.89 x10E6/uL
same,HEMATOCRIT,[5],50%
same,HEMOGLOBIN,[5],14.85 G/DL
same,LEUKOCYTE COUNT,[5],11.06 x10E3/uL
same,LYMPHOCYTE,[5],89%
same,MEAN CORPUSCULAR HEMOGLOBIN,[5],21.5 pg
same,MEAN CORPUSCULAR HEMOGLOBIN CONCENTRATION,[5],29.65 G/DL
same,MEAN CORPUSCULAR VOLUME,[5],72.6 fL
same,MONOCYTE,[5],0.95%
same,NEUTROPHIL,[5],9%
same,PLATELET COUNT,[5],1574 x10E3/uL
same,BASOPHIL,[6],0.68%
same,EOSINOPHIL,[6],0.52%
same,ERYTHROCYTE COUNT,[6],7.67 x10E6/uL
same,HEMATOCRIT,[6],48.12%
same,HEMOGLOBIN,[6],15.24 G/DL
same,LEUKOCYTE COUNT,[6],10.23 x10E3/uL
same,LYMPHOCYTE,[6],81.12%
same,MEAN CORPUSCULAR HEMOGLOBIN,[6],19.9 pg
same,MEAN CORPUSCULAR HEMOGLOBIN CONCENTRATION,[6],31.7 G/DL
same,MEAN CORPUSCULAR VOLUME,[6],62.76 fL
same,MONOCYTE,[6],2.12%
same,NEUTROPHIL,[6],14.52%
same,PLATELET COUNT,[6],1133.4 x10E3/uL
same,ALANINE AMINOTRANSFERASE,[5],39 u/L
same,ALBUMIN,[5],4.2 G/DL
same,ALKALINE PHOSPHATASE,[5],351.67 u/L
same,ASPARTATE AMINOTRANSFERASE,[5],89 u/L
same,BLOOD UREA NITROGEN,[5],16.67 mg/dL
same,CARBON DIOXIDE,[5],29.33 mmol/L
same,CHLORIDE,[5],106 MEQ/L
same,CHOLESTEROL,[5],68 mg/dL
same,CREATINE PHOSPHOKINASE,[5],701.67 u/L
same,CREATININE,[5],0.6 mg/dL
same,GLUCOSE,[5],151.33 mg/dL
same,LACTATE DEHYDROGENASE,[5],127 u/L
same,LIPASE,[5],10.67 u/L
same,PHOSPHORUS,[5],11.57 mg/dL
same,POTASSIUM,[5],6.27 MEQ/L
same,SODIUM,[5],149.33 MEQ/L
same,TOTAL BILIRUBIN,[5],0.33 mg/dL
same,TOTAL PROTEIN,[5],6.5 G/DL
same,URIC ACID,[5],1.4 mg/dL
same,ALANINE AMINOTRANSFERASE,[6],40.6 u/L
same,ALBUMIN,[6],4.04 G/DL
same,ALKALINE PHOSPHATASE,[6],340.4 u/L
same,ASPARTATE AMINOTRANSFERASE,[6],91.2 u/L
same,BLOOD UREA NITROGEN,[6],18.2 mg/dL
same,CARBON DIOXIDE,[6],28.6 mmol/L
same,CHLORIDE,[6],105.6 MEQ/L
same,CHOLESTEROL,[6],66.6 mg/dL
same,CREATINE PHOSPHOKINASE,[6],631.6 u/L
same,CREATININE,[6],0.56 mg/dL
same,GLUCOSE,[6],157.4 mg/dL
same,LACTATE DEHYDROGENASE,[6],226.6 u/L
same,LIPASE,[6],13.6 u/L
same,PHOSPHORUS,[6],12.16 mg/dL
same,POTASSIUM,[6],6.96 MEQ/L
same,SODIUM,[6],149.8 MEQ/L
same,TOTAL BILIRUBIN,[6],0.38 mg/dL
same,TOTAL PROTEIN,[6],6.12 G/DL
same,URIC ACID,[6],1.8 mg/dL

# From ChEMBL document CHEMBL3885881, “DrugMatrix”
